Experimental data as given in ChEMBL document CHEMBL4270599, “Synthesis of a 3'-C-ethynyl-β-d-ribofuranose purine nucleoside library: Discovery of C7-deazapurine analogs as potent antiproliferative nucleosides” (Eur J Med Chem, 2018).

Tests used:
Type in all cases: functional
A549 = assay: Cytotoxicity against human A549 cells after 48 hrs by SRB assay; conditions: A549, 48 h
NCI-H522 = assay: Cytotoxicity against human NCI-H522 cells after 48 hrs by SRB assay; conditions: NCI-H522, 48 h
KM12 = assay: Cytotoxicity against human KM12 cells after 48 hrs by SRB assay; conditions: KM12, 48 h
OVCAR-3 [1] = assay: Cytotoxicity against human OVCAR3 cells after 48 hrs by SRB assay; conditions: OVCAR-3, 48 h
OVCAR-5 = assay: Cytotoxicity against human OVCAR5 cells after 48 hrs by SRB assay; conditions: OVCAR-5, 48 h
HL-60(TB) = assay: Growth inhibition of human HL-60(TB) cells assessed as cell growth at 10^-8 M incubated for 48 hrs by sulforhodamine B assay relative to control; conditions: HL-60, 48 h, read-out: Activity
NCI-H322M = assay: Growth inhibition of human NCI-H322M cells assessed as cell growth at 10^-8 M incubated for 48 hrs by sulforhodamine B assay relative to control; conditions: read-out: Activity
HCC 2998 = assay: Growth inhibition of human HCC2998 cells assessed as cell growth at 10^-8 M incubated for 48 hrs by sulforhodamine B assay relative to control; conditions: HCC 2998, 48 h, read-out: Activity
SW-620 = assay: Growth inhibition of human SW620 cells assessed as cell growth at 10^-8 M incubated for 48 hrs by sulforhodamine B assay relative to control; conditions: SW-620, 48 h, read-out: Activity
SF-539 [2] = assay: Growth inhibition of human SF539 cells assessed as cell growth at 10^-8 M incubated for 48 hrs by sulforhodamine B assay relative to control; conditions: SF-539, 48 h, read-out: Activity
SNB-19 = assay: Growth inhibition of human SNB19 cells assessed as cell growth at 10^-8 M incubated for 48 hrs by sulforhodamine B assay relative to control; conditions: SNB-19, 48 h, read-out: Activity
SNB-75 = assay: Growth inhibition of human SNB75 cells assessed as cell growth at 10^-8 M incubated for 48 hrs by sulforhodamine B assay relative to control; conditions: SNB-75, 48 h, read-out: Activity
LOX IMVI = assay: Growth inhibition of human LOXIMVI cells assessed as cell growth at 10^-8 M incubated for 48 hrs by sulforhodamine B assay relative to control; conditions: read-out: Activity
HT-29 = assay: Growth inhibition of human HT-29 cells assessed as cell growth at 10^-7 M incubated for 48 hrs by sulforhodamine B assay relative to control; conditions: HT-29, 48 h, read-out: Activity
M14 [3] = assay: Growth inhibition of human M14 cells assessed as cell growth at 10^-7 M incubated for 48 hrs by sulforhodamine B assay relative to control; conditions: M14, 48 h, read-out: Activity
SK-MEL-2 = assay: Growth inhibition of human SK-MEL-2 cells assessed as cell growth at 10^-7 M incubated for 48 hrs by sulforhodamine B assay relative to control; conditions: SK-MEL-2, 48 h, read-out: Activity
IGROV-1 = assay: Growth inhibition of human IGROV1 cells assessed as cell growth at 10^-7 M incubated for 48 hrs by sulforhodamine B assay relative to control; conditions: IGROV-1, 48 h, read-out: Activity
T47D = assay: Growth inhibition of human T47D cells assessed as cell growth at 10^-7 M incubated for 48 hrs by sulforhodamine B assay relative to control; conditions: read-out: Activity
CCRF-CEM = assay: Growth inhibition of human CCRF-CEM cells assessed as cell growth at 10^-6 M incubated for 48 hrs by sulforhodamine B assay relative to control; conditions: read-out: Activity
RPMI-8226 = assay: Growth inhibition of human RPMI8226 cells assessed as cell growth at 10^-6 M incubated for 48 hrs by sulforhodamine B assay relative to control; conditions: RPMI-8226, 48 h, read-out: Activity
HOP-92 = assay: Growth inhibition of human HOP92 cells assessed as cell growth at 10^-6 M incubated for 48 hrs by sulforhodamine B assay relative to control; conditions: HOP-92, 48 h, read-out: Activity
SF-539 [4] = assay: Growth inhibition of human SF539 cells assessed as cell growth at 10^-6 M incubated for 48 hrs by sulforhodamine B assay relative to control; conditions: SF-539, 48 h, read-out: Activity
M14 [5] = assay: Growth inhibition of human M14 cells assessed as cell growth at 10^-6 M incubated for 48 hrs by sulforhodamine B assay relative to control; conditions: M14, 48 h, read-out: Activity
MDA-MB-435 = assay: Growth inhibition of human MDA-MB-435 cells assessed as cell growth at 10^-6 M incubated for 48 hrs by sulforhodamine B assay relative to control; conditions: MDA-MB-435, 48 h, read-out: Activity
OVCAR-8 = assay: Growth inhibition of human OVCAR8 cells assessed as cell growth at 10^-6 M incubated for 48 hrs by sulforhodamine B assay relative to control; conditions: OVCAR-8, 48 h, read-out: Activity
TK-10 = assay: Growth inhibition of human TK10 cells assessed as cell growth at 10^-6 M incubated for 48 hrs by sulforhodamine B assay relative to control; conditions: TK-10, 48 h, read-out: Activity
MDA-MB-231 = assay: Growth inhibition of human MDA-MB-231 cells assessed as cell growth at 10^-6 M incubated for 48 hrs by sulforhodamine B assay relative to control; conditions: MDA-MB-231, 48 h, read-out: Activity
COLO 205 = assay: Growth inhibition of human COLO205 cells assessed as cell growth at 10^-5 M incubated for 48 hrs by sulforhodamine B assay relative to control; conditions: COLO 205, 48 h, read-out: Activity
OVCAR-3 [6] = assay: Growth inhibition of human OVCAR3 cells assessed as cell growth at 10^-4 M incubated for 48 hrs by sulforhodamine B assay relative to control; conditions: OVCAR-3, 48 h, read-out: Activity
NCI/ADR-RES = assay: Growth inhibition of human NCI/ADR-RES cells assessed as cell growth at 10^-4 M incubated for 48 hrs by sulforhodamine B assay relative to control; conditions: read-out: Activity
MCF7 = assay: Growth inhibition of human MCF7 cells assessed as cell growth at 10^-4 M incubated for 48 hrs by sulforhodamine B assay relative to control; conditions: MCF7, 48 h, read-out: Activity
UACC-62 = assay: Growth inhibition of human UACC62 cells assessed as cell growth at 10^-5 M incubated for 48 hrs by sulforhodamine B assay relative to control; conditions: UACC-62, 48 h, read-out: Activity
[7] = read-out: LC50 (the source's name)

C#C[C@@]1(O)[C@@H](CO)O[C@@H](n2cc(F)c3c(N)ncnc32)[C@@H]1O
TGI (A549; read-out: TGI): 2640 nM
GI50 (A549; read-out: pGI50 (converted)): 380 nM
CC50 (A549; read-out: pLC50 (the source's name) (converted)): > 100 µM
TGI (A549; read-out: pTGI (converted)): 2630 nM
GI50 (NCI-H522; read-out: GI50): 180 nM
CC50 (NCI-H522; [7]): > 100 µM
TGI (NCI-H522; read-out: TGI): 929 nM
GI50 (NCI-H522; read-out: pGI50 (converted)): 178 nM
TGI (NCI-H522; read-out: pTGI (converted)): 933 nM
CC50 (KM12; [7]): > 100 µM
TGI (KM12; read-out: TGI): 24.9 µM
GI50 (KM12; read-out: pGI50 (converted)): 501 nM
TGI (KM12; read-out: pTGI (converted)): 25.1 µM
CC50 (OVCAR-3 [1]; [7]): > 100 µM
TGI (OVCAR-3 [1]; read-out: TGI): > 100 µM
GI50 (OVCAR-3 [1]; read-out: pGI50 (converted)): 1120 nM
TGI (OVCAR-3 [1]; read-out: pTGI (converted)): > 100 µM
CC50 (OVCAR-5; [7]): > 100 µM
TGI (OVCAR-5; read-out: TGI): > 100 µM
GI50 (OVCAR-5; read-out: pGI50 (converted)): 1780 nM
TGI (OVCAR-5; read-out: pTGI (converted)): > 100 µM
growth at 0.01 µM (HL-60(TB)): 93%
growth at 0.01 µM (NCI-H322M): 93%
growth at 0.01 µM (HCC 2998): 98%
growth at 0.01 µM (SW-620): 97%
growth at 0.01 µM (SF-539 [2]): 104%
growth at 0.01 µM (SNB-19): 93%
growth at 0.01 µM (SNB-75): 92%
growth at 0.01 µM (LOX IMVI): 96%
growth at 0.1 µM (HT-29): 68%
growth at 0.1 µM (M14 [3]): 95%
growth at 0.1 µM (SK-MEL-2): 101%
growth at 0.1 µM (IGROV-1): 96%
growth at 0.1 µM (T47D): 80%
growth at 1 µM (CCRF-CEM): 23%
growth at 1 µM (RPMI-8226): 1%
growth at 1 µM (HOP-92): 24%
growth at 1 µM (SF-539 [4]): 60%
growth at 1 µM (M14 [5]): 29%
growth at 1 µM (MDA-MB-435): 28%
growth at 1 µM (OVCAR-8): 15%
growth at 1 µM (TK-10): 42%
growth at 1 µM (MDA-MB-231): 22%
growth at 10 µM (COLO 205): -52%
growth at 100 µM (OVCAR-3 [6]): 3%
growth at 100 µM (NCI/ADR-RES): -6%
growth at 100 µM (MCF7): -21%
growth at 10 µM (UACC-62): -60%
